According to article PMC9516332 (Frontiers in Oncology, 2022):
Where two headings read alike, the source gives them in different places.

Experiments:
AP-1060 (ETV6-NTRK3) = experiment: Cell viability assay; details: read-out: IC50 in cell proliferation assay
134 cancer cell lines = experiment: Cell viability assay (ATPlite, 72 hours), IC50 on cancer cell line panel

CN1CCN(c2ccc(C(=O)Nc3n[nH]c4ccc(Cc5cc(F)cc(F)c5)cc34)c(NC3CCOCC3)c2)CC1 [entrectinib]
IC50 (AP-1060 (ETV6-NTRK3)): 0.035 µM | IC50 (134 cancer cell lines; HEC-6, read-out: IC50 in cell proliferation assay, HEC-6 cell line (EGFR p.A289V)): 6.83 µM | IC50 (134 cancer cell lines; Homo sapiens, 769-P, read-out: IC50 in cell proliferation assay, cell line 769-P): 6.69 µM | IC50 (134 cancer cell lines; Homo sapiens, 786-0, read-out: IC50 in cell proliferation assay, cell line 786-O): 5.12 µM | IC50 (134 cancer cell lines; Homo sapiens, A 172, read-out: IC50 in cell proliferation assay, cell line A-172): 4.96 µM | IC50 (134 cancer cell lines; Homo sapiens, A204, read-out: IC50 in cell proliferation assay, cell line A-204): 5.98 µM | IC50 (134 cancer cell lines; Homo sapiens, A498, read-out: IC50 in cell proliferation assay, cell line A-498): 7.97 µM | IC50 (134 cancer cell lines; Homo sapiens, A549, read-out: IC50 in cell proliferation assay, cell line A-549): 8.78 µM | IC50 (134 cancer cell lines; Homo sapiens, A704, read-out: IC50 in cell proliferation assay, cell line A-704): 6.87 µM | IC50 (134 cancer cell lines; Homo sapiens, A-375, read-out: IC50 in cell proliferation assay, cell line A-375 (BRAF p.V600E)): 5.84 µM | IC50 (134 cancer cell lines; Homo sapiens, A-427, read-out: IC50 in cell proliferation assay, cell line A-427): 3.49 µM | IC50 (134 cancer cell lines; Homo sapiens, ACHN, read-out: IC50 in cell proliferation assay, cell line ACHN): 5.79 µM | IC50 (134 cancer cell lines; Homo sapiens, AN3-CA, read-out: IC50 in cell proliferation assay, cell line AN3-CA (FGFR2 p.N549K)): 3.78 µM | IC50 (134 cancer cell lines; Homo sapiens, ASPC1, read-out: IC50 in cell proliferation assay, cell line AsPC-1): 7.99 µM | IC50 (134 cancer cell lines; Homo sapiens, AU565, read-out: IC50 in cell proliferation assay, cell line AU565 (ERBB2 amplification)): 8.63 µM | IC50 (134 cancer cell lines; Homo sapiens, BT-20, read-out: IC50 in cell proliferation assay, cell line BT-20): 10.7 µM | IC50 (134 cancer cell lines; Homo sapiens, BT-474, read-out: IC50 in cell proliferation assay, cell line BT-474 (ERBB2 amplification)): 6.15 µM | IC50 (134 cancer cell lines; Homo sapiens, BT-549, read-out: IC50 in cell proliferation assay, cell line BT-549): 7.41 µM | IC50 (134 cancer cell lines; Homo sapiens, BXPC-3, read-out: IC50 in cell proliferation assay, cell line BxPC-3): 6.09 µM | IC50 (134 cancer cell lines; Homo sapiens, C-33-A, read-out: IC50 in cell proliferation assay, cell line C-33 A): 5.23 µM | IC50 (134 cancer cell lines; Homo sapiens, CAL-27, read-out: IC50 in cell proliferation assay, cell line CAL-27): 5.15 µM | IC50 (134 cancer cell lines; Homo sapiens, CCF-STTG1, read-out: IC50 in cell proliferation assay, cell line CCF-STTG1): 10.7 µM | IC50 (134 cancer cell lines; Homo sapiens, CCRF-CEM, read-out: IC50 in cell proliferation assay, cell line CCRF-CEM): 9.03 µM | IC50 (134 cancer cell lines; Homo sapiens, COLO 205, read-out: IC50 in cell proliferation assay, cell line COLO 205 (BRAF p.V600E)): 7.72 µM | IC50 (134 cancer cell lines; Homo sapiens, COLO-829, read-out: IC50 in cell proliferation assay, cell line COLO 829 (BRAF p.V600E)): 8.95 µM | IC50 (134 cancer cell lines; Homo sapiens, DLD-1, read-out: IC50 in cell proliferation assay, cell line DLD-1): 10.5 µM | IC50 (134 cancer cell lines; Homo sapiens, DU-4475, read-out: IC50 in cell proliferation assay, cell line DU4475 (BRAF p.V600E)): 8.22 µM | IC50 (134 cancer cell lines; Homo sapiens, Daoy, read-out: IC50 in cell proliferation assay, cell line Daoy): 5.1 µM | IC50 (134 cancer cell lines; Homo sapiens, DoTc2-4510, read-out: IC50 in cell proliferation assay, cell line DoTc2 4510): 4.69 µM | IC50 (134 cancer cell lines; Homo sapiens, EOL1, read-out: IC50 in cell proliferation assay, cell line EoL-1 (FIP1L1-PDGFRA)): 0.512 µM | IC50 (134 cancer cell lines; Homo sapiens, FaDu, read-out: IC50 in cell proliferation assay, cell line FaDu): 5.64 µM | IC50 (134 cancer cell lines; Homo sapiens, G-361, read-out: IC50 in cell proliferation assay, cell line G-361 (BRAF p.V600E)): 4.67 µM | IC50 (134 cancer cell lines; Homo sapiens, HCC827, read-out: IC50 in cell proliferation assay, cell line HCC827 (EGFR exon19del)): 2.98 µM | IC50 (134 cancer cell lines; Homo sapiens, HCC4006, read-out: IC50 in cell proliferation assay, cell line HCC4006 (EGFR exon19del)): 4.96 µM | IC50 (134 cancer cell lines; Homo sapiens, HCT-15, read-out: IC50 in cell proliferation assay, cell line HCT 15): 7.64 µM | IC50 (134 cancer cell lines; Homo sapiens, HCT-116, read-out: IC50 in cell proliferation assay, cell line HCT 116): 4.66 µM | IC50 (134 cancer cell lines; Homo sapiens, HEC-1, read-out: IC50 in cell proliferation assay, HEC-1 cell line): 3.73 µM | IC50 (134 cancer cell lines; Homo sapiens, HEC-1B, read-out: IC50 in cell proliferation assay, HEC-1-B cell line (EGFR p.A864V)): 2.24 µM | IC50 (134 cancer cell lines; Homo sapiens, HL-60, read-out: IC50 in cell proliferation assay, HL-60 cell line): 5.68 µM | IC50 (134 cancer cell lines; Homo sapiens, HT, read-out: IC50 in cell proliferation assay, HT cell line): 12 µM | IC50 (134 cancer cell lines; Homo sapiens, HT-1080, read-out: IC50 in cell proliferation assay, HT-1080 cell line): 7.36 µM | IC50 (134 cancer cell lines; Homo sapiens, Hs746T, read-out: IC50 in cell proliferation assay, Hs 746.T cell line (MET exon14skip + amplification)): 10.9 µM | IC50 (134 cancer cell lines; Homo sapiens, Hs-578T, read-out: IC50 in cell proliferation assay, Hs 578T cell line): 7.05 µM | IC50 (134 cancer cell lines; Homo sapiens, HuTu80, read-out: IC50 in cell proliferation assay, HuTu 80 cell line): 3.57 µM | IC50 (134 cancer cell lines; Homo sapiens, J82, read-out: IC50 in cell proliferation assay, J82 cell line): 7.16 µM | IC50 (134 cancer cell lines; Homo sapiens, Jurkat E6.1, read-out: IC50 in cell proliferation assay, Jurkat E6.1 cell line): 8.24 µM | IC50 (134 cancer cell lines; Homo sapiens, K562, read-out: IC50 in cell proliferation assay, K-562 cell line): 5.82 µM | IC50 (134 cancer cell lines; Homo sapiens, KATO III, read-out: IC50 in cell proliferation assay, KATO III cell line (FGFR2 amplification)): 1.43 µM | IC50 (134 cancer cell lines; Homo sapiens, KG-1, read-out: IC50 in cell proliferation assay, KG-1 cell line (FGFR1OP2-FGFR1)): 1.53 µM | IC50 (134 cancer cell lines; Homo sapiens, KLE, read-out: IC50 in cell proliferation assay, KLE cell line): 4.33 µM | IC50 (134 cancer cell lines; Homo sapiens, KMS-11, read-out: IC50 in cell proliferation assay, KMS-11 cell line (FGFR3 p.Y373C)): 4.82 µM | IC50 (134 cancer cell lines; Homo sapiens, KU812, read-out: IC50 in cell proliferation assay, Ku812 cell line): 4.72 µM | IC50 (134 cancer cell lines; Homo sapiens, Kasumi 1, read-out: IC50 in cell proliferation assay, Kasumi-1 cell line (KIT p.N822K)): 3.68 µM | IC50 (134 cancer cell lines; Homo sapiens, LC-2-ad, read-out: IC50 in cell proliferation assay, LC-2/ad cell line (CCDC6-RET)): 1.81 µM | IC50 (134 cancer cell lines; Homo sapiens, LNCaP-Clone-FGC, read-out: IC50 in cell proliferation assay, LNCaP clone FGC cell line): 10.9 µM | IC50 (134 cancer cell lines; Homo sapiens, LS174T, read-out: IC50 in cell proliferation assay, LS174T cell line): 4.9 µM | IC50 (134 cancer cell lines; Homo sapiens, LS-411N, read-out: IC50 in cell proliferation assay, LS411N cell line (BRAF p.V600E)): 9.55 µM | IC50 (134 cancer cell lines; Homo sapiens, LoVo, read-out: IC50 in cell proliferation assay, LoVo cell line): 9.52 µM | IC50 (134 cancer cell lines; Homo sapiens, MCF7, read-out: IC50 in cell proliferation assay, MCF-7 cell line): 3.83 µM | IC50 (134 cancer cell lines; Homo sapiens, MDA-MB-231, read-out: IC50 in cell proliferation assay, MDA-MB-231 cell line): 4.59 µM | IC50 (134 cancer cell lines; Homo sapiens, MDA-MB-453, read-out: IC50 in cell proliferation assay, MDA-MB-453 cell line): 11.5 µM | IC50 (134 cancer cell lines; Homo sapiens, MDA-MB-468, read-out: IC50 in cell proliferation assay, MDA-MB-468 cell line): 11 µM | IC50 (134 cancer cell lines; Homo sapiens, MG-63, read-out: IC50 in cell proliferation assay, MG-63 cell line): 3.8 µM | IC50 (134 cancer cell lines; Homo sapiens, MIA PaCa-2, read-out: IC50 in cell proliferation assay, MIA PaCa-2 cell line): 5.16 µM | IC50 (134 cancer cell lines; Homo sapiens, MKN-45, read-out: IC50 in cell proliferation assay, MKN45 cell line (MET amplification)): 11.8 µM | IC50 (134 cancer cell lines; Homo sapiens, MOLM-13, read-out: IC50 in cell proliferation assay, MOLM-13 cell line (FLT3 ITD)): 0.214 µM
